In ChEMBL document CHEMBL5614434, “A Lysosome-Targeting hNEU1 Inhibitor Treats Myocardial Infarction: A Potential Therapeutic Breakthrough” (J Med Chem, 2024):

Tested on: H9c2
Experiment: Cytotoxicity against rat H9c2 cells assessed as cell viability at 0.001 to 50 uM under normoxia condition by CCK-8 method
Type: toxicity, cell-based
Settings: h9c2, 50 µM, dose 0.001-50 µM

| Compound | Activity |
| --- | --- |
| CCC(CC)O[C@@H]1C=C(C(=O)OCCc2ccncc2)C[C@H](N)[C@H]1NC(C)=O | Non-Toxic |
| CCC(CC)O[C@@H]1C=C(C(=O)OCCN2CCNCC2)C[C@H](N)[C@H]1NC(C)=O | Non-Toxic |
